Type in all cases: cell-based
The test system of assay [1] is EOC 13.31 microglial cells. The assay is described as follows: NO release inhibition screen in LPS/IFNγ stimulated microglia, Griess reaction at 48 hours (Example 7). Particulars: for μM NO release Avg / % inhibition / inhibition at 50 µM: 50 uM + 10 μg/ml LPS/10 ng/ml IFNγ, 48 hours; for % inhibition: 50 µM; for inhibition at 50 µM: Microglia, 48 h. As for the experimental part:
In this experiment, additional bis- and tris-dihydroxyaryl compounds were screened for their ability to inhibit nitric oxide release from microglial cells. Microglial cells stimulated with LPS/IFNγ release nitric oxide. […] This is a continuation of screening experiments. EOC 13.31 microglial cells were plated into 96 well plates. At 24 hours and at confluency, cells were treated with 10 μg/ml LPS/10 ng/ml IFNγ+50 uM bis- and tris-dihydroxyaryl compounds.
For orientation: Nitrite, measured by Griess reagent, commonly stands in for NO production.

The subject of assay [2] is TNF-α release from microglia. The assay is described as follows: TNF-α release from LPS/IFNγ stimulated microglia, TNF-α ELISA (Example 11). Conditions: 50 uM compound, TNF-α release, 10 ug LPS and 10 ng IFNγ, 24 hours; for % inhibition: individual replicates, 50 µM; for inhibition at 50 µM: Microglia, 24 h, read-out: Avg % Inhibition. Here is the method: Also, bis- and tris-dihydroxyaryl compound's ability to inhibit NO release strongly supports their interference with the inflammatory cascade and utlimately inhibition of inflammation. Microglia cells were plated at 1×10^5 cells/ml into 96 well plates. At day three, they were treated with 50 μM bis- and tris-dihydroxyaryl compound for 1 hour and then exposed to 10 μg/ml LPS+10 ng/ml IFNγ for 24 hours. 10 μl of media was removed and stored at −80° until TNF-α ELISA assays were performed. Samples were diluted 1:50 before running the TNF-α ELISA (kit commercially available from Sigma).
A general note: An ELISA detects its analyte on a solid surface through an enzyme-linked reagent.

Another assay deals with microglia. As to the kind of experiment: Ranking of NO release inhibition (Example 12). Conditions: Microglia, ranking table. The source says: The bis- and tris-dihydroxyaryl compounds were ranked in order of effectiveness for the inhibition of NO release as set out in Table 8.
The test system of assay [3] is EOC 13.31 microglia cells. As to the kind of experiment: Inhibition of NO release from microglia following 24 hours pretreatment (Example 10). Conditions: for inhibition at 50 µM: Microglia. As for the experimental part:
This experiment was designed to determine if pretreatment for 24 hours with bis- and tris-dihydroxyaryl compounds changes NO inhibition previously observed with concurrent exposure of bis- and tris-dihydroxyaryl compounds. […] This study seeks to determine if pretreatment with bis- and tris-dihydroxyaryl compounds increases NO release inhibition. EOC 13.31 microglia cells were plated at 1×10^6 cells/ml in 96 well plates. After 48 hours, confluent cells were exposed to 50 μM compound (stock 10 mM in DMSO) prepared in fresh cell culture media. After 24 hours, 10 μg/ml LPS and 10 ng/ml IFNγ was added to wells directly without a media change. Cells were incubated for a further 48 hours and nitric oxide release was measured using the Griess Reaction.

The mark [4] stands for this setting: single replicates, read-out: % inhibition.
The mark [5] stands for this setting: 50 uM pretreatment 24 hours, then LPS/IFNγ 48 hours, single replicates.
Where [6] appears, read: 50 uM pretreatment 24 hours, then LPS/IFNγ 48 hours, read-out: Avg % Inhibition.
[7] abbreviates: 50 uM pretreatment 24 hours, then LPS/IFNγ 48 hours, single replicates, read-out: % inhibition.
Where [8] appears, read: 50 μM pretreatment, read-out: inhibition of NO release following pretreatment.

The structures appear in SMILES notation. “And” between values parts separate entries of the source, which are not always exact repeats. Equal values may be shown once. Read-outs that look alike come from different tables or passages of the source.

The term % inhibition denotes the drop in the measured response relative to a control, in per cent. Usually inhibition stands for the relative decrease from the control value, in per cent.

As to `O=C(c1ccc(O)c(O)c1)C(O)c1ccc(O)c(O)c1` (centres unmarked) [Compound 1, 3,4,3′,4′-tetrahydroxybenzoin], the “μM NO release Avg” value in assay [1] worked out at 22.038 µM. The “% inhibition” value in assay [1] (single replicates) is 20.29% and 18.62%; in assay [2], −16.55% and −17.04% and −18.19%. Further, the inhibition at 50 µM is 18.4% in assay [1] (read-out: Avg. % Inhibition), 16.4% in assay [1] (setting [4]), -17.3% in assay [2] and 18% in the assay on microglia.
As for `O=C(c1ccc(O)c(O)c1)N1CCN(C(=O)c2ccc(O)c(O)c2)CC1` [Compound 23, 1,4-bis(3,4-dihydroxybenzoyl)piperazine], in assay [1], the “μM NO release Avg” value was 23.394 µM. Further, the “% inhibition” value in assay [1] (single replicates) was 13.60% and 9.70%; in assay [2], −23.78% and −15.89% and −17.96%. Moreover, the inhibition at 50 µM in assay [1] (read-out: Avg. % Inhibition) was 13.4%; in assay [1] (setting [4]), 16.9%; in assay [2] it was -19.2%; in the assay on microglia, 13%.
Consider `O=C(CCc1ccc(O)c(O)c1)Nc1ccc(O)c(O)c1` [Compound 57, 3-(3,4-dihydroxyphenyl)propionic acid 3,4-dihydroxyanilide], for which the “μM NO release Avg” value in assay [1] stood at 23.756 µM. The “% inhibition” value in assay [1] (single replicates) was 16.40% and 20.74% and 5.97%; in assay [2] it was −6.36% and −3.40% and −1.92%. The inhibition at 50 µM in assay [1] (read-out: Avg. % Inhibition) was 14.4%; in assay [3] (setting [6]) it was 100%; in assay [3] (setting [7]), 100%; in assay [3] (setting [8]), more than 75%; in assay [2], -3.89%; with microglia, 14%. The “μM NO release” value in assay [3] (setting [5]) came out at 0.000 µM.
Turning to `O=C(CCc1ccc(O)c(O)c1)NCc1ccc(O)c(O)c1` [Compound 58, 3-(3,4-dihydroxyphenyl)propionic acid 3,4-dihydroxybenzylamide], in assay [1], the “μM NO release Avg” value is 26.605 µM. Besides, the “% inhibition” value in assay [1] (single replicates) is 9.89% and 2.05% and 0.37%; in assay [3] (setting [5]) it was 77.86% and 69.95%; in assay [2], −13.26% and −11.95%. Also, the inhibition at 50 µM in assay [1] (read-out: Avg. % Inhibition) was 4.1%; in assay [3] (setting [6]) it was 72.5%; in assay [3] (setting [7]) it was 69.6%; in assay [2], -12.6%; in the assay on microglia, 4%.
Turning to `O=C(C=Cc1ccc(O)c(O)c1)NCc1ccc(O)c(O)c1` [Compound 61, 3,4-dihydroxycinnamic acid 3,4-dihydroxybenzylamide], the “μM NO release Avg” value in assay [1] stood at 21.285 µM. Further, the “% inhibition” value was 19.18% and 24.19% in assay [1] (single replicates); −3.40% and −17.04% and −7.51% in assay [2]. The “inhibition of NO release, in words” value in assay [1] (50 uM, LPS/IFNγ stimulated microglia) was “effective inhibitors of NO release”. Moreover, the inhibition at 50 µM in assay [1] (read-out: Avg. % Inhibition) is 21.2%; in assay [1] (setting [4]), 20.3%; in assay [2], -9.32%; in the assay on microglia, 21%.
As for `O=C(Nc1ccc(O)c(O)c1)C(=O)Nc1ccc(O)c(O)c1` [Compound 63, oxalic acid bis(3,4-dihydroxyanilide)], in assay [1], the “μM NO release Avg” value came out at 23.193 µM. Also, the “% inhibition” value in assay [1] (single replicates) was 15.27%; in assay [3] (setting [5]), 81.97%; in assay [2], −11.29% and −7.18% and −9.97%. The inhibition at 50 µM in assay [1] (read-out: Avg. % Inhibition) was 14.2%; in assay [1] (setting [4]), 11.9%; in assay [3] (setting [6]) it was 82.1%; in assay [3] (setting [7]), 82.3%; in assay [3] (setting [8]), more than 75%; in assay [2], -9.48%. The inhibition at 50 µM in the assay on microglia was 14%.
As for `Oc1ccc(CN(Cc2ccc(O)c(O)c2)Cc2ccc(O)c(O)c2)cc1O` [Compound 75, tris(3,4-dihydroxybenzyl)amine], the “μM NO release Avg” value in assay [1] is 23.343 µM. Also, the “% inhibition” value in assay [1] (single replicates) is 24.54% and 12.06% and 10.97%; in assay [3] (setting [5]), 60.46% and 56.98%; in assay [2], 2.52% and −2.74% and 5.81%. Moreover, the inhibition at 50 µM was 15.9% in assay [1] (read-out: Avg. % Inhibition); 59.6% in assay [3] (setting [6]); 61.4% in assay [3] (setting [7]); 1.86% in assay [2]; 16% in the assay with microglia.
On to `Oc1cc2ncc3cnc4cc(O)c(O)cc4c3c2cc1O` [Compound 85, dibenzo[c,f][2,7]napthyridine-2,3,10,11-tetraol], for which the “μM NO release Avg” value in assay [1] stood at 23.445 µM. Besides, the “% inhibition” value in assay [1] (single replicates) is 24.54% and 12.660% and 9.33%; in assay [3] (setting [5]), 97.27% and 94.23%; in assay [2], −14.41% and −19.01% and −16.88%. In addition, the inhibition at 50 µM in assay [1] (read-out: Avg. % Inhibition) is 15.5%; in assay [3] (setting [6]), 94.9%; in assay [3] (setting [7]), 93.3%; in assay [3] (setting [8]) it was more than 75%; in assay [2], -16.8%; in the assay on microglia, 16%.

Values taken from patent US20070208087A1, “Compounds, compositions and methods for the treatment of inflammatory diseases” (priority 2001, published 2007).
